According to US9023835B2, “Agent for ameliorating blood-brain barrier disorders” (Nagasaki University, priority 2009, dated 2015):

How the values were obtained:
[1] = tested on: cerebral ischemia model mice (left middle cerebral artery infarction, reperfusion); assay: Tomato lectin staining of cerebral microvessels (blood-brain barrier disorder) in transient cerebral ischemia model mice; format: in vivo, C57BL/J6 mice; details: for tomato lectin signal (microvessel length) on the ipsilateral-to-ischemia side, cerebrocortical sensation region: 1 h MCAO, i.v. 1 h after reperfusion, ProTα 100 μg/kg, ProTα30 1 mg/kg, ProTα9 0.3 mg/kg, C-term 0.3 mg/kg; for suppression of cerebrovascular collapse (tomato lectin staining, cortex and striatum): Example 4, same experiment as Example 1, ProTα vs ProTα30
Protocol: Five minutes later, the whole body was perfused and fixed with para-formaldehyde (PFA); the brain was extracted and further treated with 4% PFA at room temperature for 3 hours. Thereafter, the brain was placed in 25% sucrose solution and allowed to stand at 4° C. overnight. The brain was freeze-embedded in the OCT compound, and a 50 μm-thick section was prepared on a plane including the cerebral cortex sensory area S1 (CS1) or S2 (CS2), bonded onto a silane-coated glass slide, and dried on a heater overnight. Thereafter, using Alexa Fluor488-labeled streptavidin (diluted 300 fold with 2% BSA/PBST), fluorescent staining of tomato lectin was performed, after which the specimen was fixed with the fluorescent antifading agent Fluoromount (Japan Tanner Corporation), and allowed to stand in the dark overnight, then examined using the LSM5 PASCAL confocal laser microscope (Carl Zeiss). Fluorescent signals were cumulatively analyzed for total fluorescence in an approximately 30 μm range by the deconvolution method.
After 0.5 hours of middle cerebral artery obstruction (MCAO), reperfusion was performed; 1 hour later, tomato lectin staining in the CS2 region was observed as a signal of approximately 30 μm length on the contralateral-to-ischemia side (the scale bar is 100 μm, ×20 objective lens).
The same experiment as that shown in Example 1 was performed using ProTα and the active form ProTα30, and the effects thereof were comparatively analyzed.
Furthermore, fluorescent staining of tomato lectin was performed in the same manner as in Example 1, and microvessels were analyzed.
When reperfusion was performed after 1 hour of middle cerebral artery occlusion (MCAO), tomato lectin staining of the cerebrocortical sensation region was observed as a signal roughly 30 μm long on the contralateral-to-ischemia side (Contra).

[2] = tested on: transient cerebral ischemia model mice; assay: Transient cerebral ischemia model mice: infarction region volume (TTC), clinical score, survival rate; details: for infarction region suppressing effect: 0.3 mg/kg i.v.; for infarction (infarction region volume, TTC): 24 h later, solvent alone 48%; for infarction (infarction region volume): solvent 48%
Protocol: Cerebral ischemia model mice generated by infarcting the left middle cerebral arteries of C57BL/J6 mice were maintained for 1 hour, and then reperfusion was performed. One hour after the reperfusion, a vehicle or ProTα30 (10 μg) was intracerebroventricularly administered (i.c.v.); the mice were examined over time every 24 hours to evaluate the motor function and survival rate. Also, clinical scores indicating movement disorders subsequent to left middle cerebral artery infarction were evaluated according to the rating system of 1: unable to completely extend the right forelimb, 2: rightward turning behavior, 3: unable to keep the posture and leans in the rightward direction, 4: loss of spontaneous movement, 5: death.
Meanwhile, 1 hour after ischemia and reperfusion, ProTα30 (0 μg (Veh), 0.1 μg or 10 μg) was intracerebroventricularly administered; the whole brain, extracted 24 hours thereafter was treated with 2% TTC (2,3,5-Triphenyltetrazolium chloride) staining solution in solution in PBS, and washed with PBS, after which five coronary sections of 1 mm thickness were taken with coverage of 2 mm anteriorly and 3 mm posteriorly from the bregma. […] The cerebral infarction region was evaluated according to the equation below. […] All volume on the ipsilateral side refers to the entire infarcted and non-infarcted regions on the ischemized side as divided on the median line, whereas all volume on the contralateral side refers to the entire region on the non-ischemized side.

[3] = tested on: photoinduced middle cerebral artery thrombosis (PIT) model mice; assay: Photoinduced middle cerebral artery thrombosis (PIT) model mice: infarction region volume, motor function; format: in vivo, C57BL/J6 mice; details: for infarction (infarction region volume): after 24 hours of ischemia, solvent 48%; for motor function evaluation (inability to keep the posture and leaning or loss of spontaneous movement): 24 hours after ischemia, ProTα 100 μg/kg, ProTα30 1 mg/kg, ProTα9 0.1-1 mg/kg
Protocol: The left middle cerebral artery of a C57BL/J6 mouse was exposed under the dura, and the photosensitizing dye rose bengal was administered at 30 mg/kg into a caudal vein, after which green light with a given wavelength was irradiated to the middle cerebral artery for 10 minutes to produce a thrombus, and induce infarction with this thrombus. One hour after light irradiation, vehicle, ProTα (100 μg/kg), ProTα30 (1 mg/kg), or ProTα9 (0.1 mg/kg, 0.3 mg/kg and 1 mg/kg) was administered to a caudal vein. Next, after 24 hours of ischemia, infarction region volume was measured to evaluate the motor function in the same manner as the above.

[4] = tested on: permanent cerebral ischemia model mice; assay: Permanent cerebral ischemia model mice: infarction region volume, clinical score, survival rate; details: no reperfusion, 24 h later, solvent 60%
Protocol: To permanent cerebral ischemia model mice generated by infarcting the middle cerebral arteries of C57BL/J6 mice, ProTα30 was intravenously administered (i.v.), without reperfusion, 2 hours and 4 hours after the start of ischemia. Next, 24 hours later, in the same manner as the above, infarction region volume was measured.
To permanent cerebral ischemia model mice generated by infarcting the middle cerebral arteries of C57BL/J6 mice, ProTα was administered into a caudal vein at 100 μg/kg, without reperfusion, 2, 7, or 12 hours after the start of ischemia. Next, in the same manner as the above, infarction region volume was measured. […] In the same mice, motor function was evaluated. Clinical scores indicating motor function disorders were evaluated in the same manner as Example 5.
Meanwhile, a vehicle or ProTα (100 μg) was administered into a caudal vein (i.v.) 2 and 4 hours after the start of ischemia, and the mice were examined over time every 24 hours to evaluate the motor function and survival rate.

[5] = tested on: permanent cerebral ischemia model rats; assay: Permanent cerebral ischemia model rats: infarction region volume, clinical score, survival rate
Protocol: To permanent cerebral ischemia model rats generated by infarcting the middle cerebral arteries of Sprague-Dawley rats, ProTα was administered into a caudal vein (i.v.), without reperfusion, 4 hours after the start of ischemia. Next, 24 hours later, infarction region volume was measured in the same manner as the above.
Furthermore, rats were examined over time every 24 hours to evaluate the motor function and survival rate.

[6] = 1 mg/kg caudal vein 1 hour after light irradiation

**Q.** How did the “tomato lectin signal (microvessel length) on the ipsilateral-to-ischemia side, cerebrocortical sensation region” value (from here on “tomato lectin signal”) [1] turn out when “C-term: C-end of ProTα, amino acid sequence TKKQKKTDEDD (SEQ ID NO: 50) [reference compound]” was run?
**A.** observed only as a fragment

**Q.** How did the “tomato lectin signal” value [1] turn out when “ProTα9: polypeptide consisting of the 52nd amino acid to the 60th amino acid of rat prothymosin α, EVDEEEEEG (SEQ ID NO:6) (consensus amino acid sequence)” was run?
**A.** longer signals

**Q.** And the “infarction region suppressing effect” value [2]?
**A.** cerebral infarction region suppressing effect

**Q.** And the “infarction injury region, dose dependence” value ([3]; 0.1 mg/kg, 0.3 mg/kg and 1 mg/kg caudal vein)?
**A.** decreased in a dose-dependent fashion

**Q.** And the “infarction (infarction region volume)” value [3, 6]?
**A.** 30%

**Q.** What about the “motor function evaluation (inability to keep the posture and leaning or loss of spontaneous movement)” value [3] of the same substance?
**A.** significantly ameliorated

**Q.** How did the “infarction (infarction region volume)” value ([4]; 1 mg/kg i.v. once, 2 hours after infarction) turn out when “ProTα30: polypeptide consisting of the 49th amino acid to the 78th amino acid of rat prothymosin α (SEQ ID NO:4) (ADNEVDEEEEEGGEEEEEEEEGDGEEEDGD; consensus amino acid sequence)” was run?
**A.** 34%

**Q.** What about the “infarction (infarction region volume)” value ([4]; i.v. twice, at 2 hours and 4 hours) of the same substance?
**A.** 27%

**Q.** And the “tomato lectin signal” value [1]?
**A.** longer signals

**Q.** And the “suppression of cerebrovascular collapse (tomato lectin staining, cortex and striatum)” value [1]?
**A.** suppressing cerebrovascular collapse

**Q.** And the “infarction (infarction region volume, TTC)” value ([2]; 0.1 μg i.c.v. 1 h after reperfusion)?
**A.** 44%

**Q.** What about the “infarction (infarction region volume, TTC)” value ([2]; 10 μg i.c.v. 1 h after reperfusion) of the same substance?
**A.** 38%

**Q.** What about the “motor function evaluation (clinical score)” value ([2]; 10 μg i.c.v., loss of spontaneous movement 3 days after ischemia and reperfusion) of the same substance?
**A.** significantly ameliorated

**Q.** And the “clinical scores (hemiparalysis of degree 3)” value ([2]; 0.275 mg/kg i.v.)?
**A.** no effect was observed

**Q.** And the “infarction (infarction region volume)” value ([2]; 0.275 mg/kg i.v. once 1 hour after reperfusion)?
**A.** 39%

**Q.** What about the “infarction region suppressing effect” value [2] of the same substance?
**A.** cerebral infarction region suppressing effect

**Q.** And the “clinical scores (hemiparalysis of degree 3)” value ([2]; 1 mg/kg i.v.)?
**A.** ameliorated significantly

**Q.** What about the “infarction (infarction region volume)” value ([2]; 1 mg/kg i.v. once 1 hour after reperfusion) of the same substance?
**A.** 13%

**Q.** And the survival rate ([2]; mouse, in vivo)?
**A.** about 80%

**Q.** And the “infarction (infarction region volume)” value [3, 6]?
**A.** 30%

**Q.** And the “motor function evaluation (inability to keep the posture and leaning or loss of spontaneous movement)” value [3]?
**A.** significantly ameliorated

**Q.** How did the survival rate ([5]; 100 μg caudal vein, about 2 weeks later, non-dosing group 50% one day after ischemia) turn out when “prothymosin α (SDAAVDTSSEITTKDLKEKKEVVEEAEN; UniProt P26350 2-29, looked up) [ProTα, known protein]” was run?
**A.** about 75%

**Q.** What about the “infarction (infarction region volume)” value ([5]; 100 μg/kg i.v. 4 hours after infarction, 24 h later, solvent 40%) of the same substance?
**A.** 25%

**Q.** And the “cerebrovascular destruction in the CS2 and striata on the ischemized side (tomato lectin staining)” value ([1]; 0.1 mg/kg i.v. 1 hour after reperfusion, examined 24 hours after reperfusion)?
**A.** disappeared nearly completely

**Q.** And the “tomato lectin signal” value [1]?
**A.** longer signals

**Q.** What about the “suppression of cerebrovascular collapse (tomato lectin staining, cortex and striatum)” value [1] of the same substance?
**A.** suppressing cerebrovascular collapse

**Q.** What about the “infarction (infarction region volume)” value ([3]; 100 μg/kg caudal vein 1 hour after infarction) of the same substance?
**A.** 23%

**Q.** What about the “motor function evaluation (inability to keep the posture and leaning or loss of spontaneous movement)” value [3] of the same substance?
**A.** significantly ameliorated
